Measurements published in paper PMC10352132 (Nature Structural & Molecular Biology, 2023).
Where “and” joins values, the source holds several entries; their conditions need not be identical. Equal entries are not always repeated. Where two headings read alike, the source gives them in different places.

Legend:
rGAT1WT [1] = molecular target: T1, rGAT1WT (Rattus norvegicus, UniProt P23978); test: Inhibition of 3H-GABA uptake through rGAT1WT; type: cell-based; settings: rGAT1WT; for 3[H]GABA uptake (% of uninhibited sample): replicates T1-T6
Protocol: (§1) […]. After 15 min, the uptake was arrested with 100 µl of ice-cold assay buffer and washed two times with the same buffer. The cells were solubilized for 1 h in 100 µl of 20 mM DDM and 2 mM CHS, and 50 µl of scintillant was added to the solubilized material. Counts were measured using a MicroBeta scintillation counter. Uninfected cells were used as a control. The background-subtracted dose–response curves were plotted as log [inhibitor] versus response using GraphPad Prism (version 5.0.1) and IC50 values were determined. The Ki values were calculated using Cheng-Prusoff’s equation. […] The data were analyzed using GraphPad Prism (version 5.0.1).

rGAT1EM [2] = molecular target: T2, rGAT1EM (Rattus norvegicus, UniProt P23978, D482E/E486D/F312Y/N483D/Q485R/R491P/S490F/V488I/Y481S); test: MS binding assay (LC-ESI-MS/MS saturation) with rGAT1EM expressing membranes; settings: for total binding / non-specific binding: rGAT1EM; for total binding: triplicate; for non-specific binding: in the presence of 100 mM GABA
T2 sequence (P23978 with tags, fused parts or gaps F312Y/Y481S/D482E/N483D/Q485R/E486D/V488I/S490F/R491P): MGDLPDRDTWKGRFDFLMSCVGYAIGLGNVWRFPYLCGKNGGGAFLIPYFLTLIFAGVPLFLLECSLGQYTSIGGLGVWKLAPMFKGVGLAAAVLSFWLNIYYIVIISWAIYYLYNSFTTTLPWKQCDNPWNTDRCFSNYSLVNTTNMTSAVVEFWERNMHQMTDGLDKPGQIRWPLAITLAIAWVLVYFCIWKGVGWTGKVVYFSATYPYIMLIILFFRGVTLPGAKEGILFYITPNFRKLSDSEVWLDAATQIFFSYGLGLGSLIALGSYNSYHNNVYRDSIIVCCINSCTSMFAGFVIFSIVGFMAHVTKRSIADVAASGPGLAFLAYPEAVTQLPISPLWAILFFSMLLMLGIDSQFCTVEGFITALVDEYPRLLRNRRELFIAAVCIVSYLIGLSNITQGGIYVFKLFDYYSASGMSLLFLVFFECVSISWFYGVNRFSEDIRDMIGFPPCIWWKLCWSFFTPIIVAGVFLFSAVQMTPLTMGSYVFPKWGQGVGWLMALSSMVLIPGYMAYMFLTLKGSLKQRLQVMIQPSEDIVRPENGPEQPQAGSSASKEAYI
Protocol: (§2) The cell suspension was sonicated, the lysate was centrifuged at 21,000×g to separate the cell debris and 1 ml of the supernatant was aliquoted into each of forty 1.5 ml microfuge tubes. The membrane suspension was spun at 49,000×g for 90 min in a TLA100.1 rotor (Beckman) followed by flash-freezing and storage at −80 °C.
(§3) Binding experiments were performed as described unless stated otherwise. Aliquots of rGAT1 or hGAT1[53] membrane preparations were defrosted, diluted in 20 ml 50 mM Tris-citrate buffer containing 1 M NaCl, pH 7.1 (assay buffer) and centrifuged (50,000×g, 4 °C, 20 min). After resuspension of the pellet in assay buffer, saturation experiments with NO711 were performed in triplicate samples (about 10 µg protein) in a total assay volume of 250 µl. […] Incubation was performed for 40 min at 37 °C; subsequently, 200 µl aliquots of the binding samples were transferred onto 96-well filter plates and filtrated under vacuum, followed by rapid washing of the filters with ice-cold 0.9% NaCl (3 × 150 µl). The filter plates were then dried (60 min, 50 °C) and eluted with 3 × 100 µl methanol (containing 1.43 nM D10-NO711). […] Analysis of the binding data was performed with GraphPad Prism (version 6.0.7). The results are based on at least three independent saturation experiments for each GAT1 species.

rGAT1EM [3] = molecular target: T2, rGAT1EM; test: Inhibition of 3H-GABA uptake through rGAT1EM; type: cell-based; settings: rGAT1EM; for 3[H]GABA uptake (% of uninhibited sample): replicates T1-T6
Protocol: as §1

rGAT1WT [4] = molecular target: T1, rGAT1WT; test: MS binding assay (LC-ESI-MS/MS saturation) with rGAT1WT expressing membranes; settings: for total binding / non-specific binding: rGAT1WT; for total binding: triplicate; for non-specific binding: in the presence of 100 mM GABA
Protocol: as §2, §3

[5] = calculated using Cheng-Prusoff's equation

## O=C(O)C1=CCCN(CCON=C(c2ccccc2)c2ccccc2)C1 [NO711]
rGAT1WT [1]
  IC50: 563 nM
rGAT1WT [1]; [5]
  Ki: 325 ± 35 nM
rGAT1WT [1]; inhibitor 1 nM, 0.001 µM
  3[H]GABA uptake (% of uninhibited sample): 91.7343% and 91.298% and 89.6982% and 104.496% and 107.442% and 95.8793%
rGAT1WT [1]; inhibitor 10 nM, 0.01 µM
  3[H]GABA uptake (% of uninhibited sample): 89.0619% and 103.351% and 105.969% and 101.46% and 106.551% and 93.6068%
rGAT1WT [1]; inhibitor 30 nM, 0.03 µM
  3[H]GABA uptake (% of uninhibited sample): 83.2626% and 81.7356% and 90.8981% and 90.6072% and 95.952% and 94.6794%
rGAT1WT [1]; inhibitor 100 nM, 0.1 µM
  3[H]GABA uptake (% of uninhibited sample): 91.189% and 83.9535% and 82.5718% and 49.5576% and 81.2629% and 73.9547%
rGAT1WT [1]; inhibitor 500 nM, 0.5 µM
  3[H]GABA uptake (% of uninhibited sample): 55.0115% and 49.6303% and 48.5396% and 53.3026% and 54.4298% and 46.4671%
rGAT1WT [1]; inhibitor 1000 nM, 1 µM
  3[H]GABA uptake (% of uninhibited sample): 39.1225% and 40.286% and 41.9222% and 36.8319% and 37.6318% and 37.6682%
rGAT1WT [1]; inhibitor 3000 nM, 3 µM
  3[H]GABA uptake (% of uninhibited sample): 18.3614% and 14.2165% and 17.0888% and 16.5071%
rGAT1EM [2]; rGAT1EM membranes
  BMAX (MS binding assay): 212.4 ± 30.3 pmol/mg protein
  Kd: 80 nM and 80.7 nM
rGAT1EM [2]; c NO711 2.5 nM
  total binding: 0.0853 nM and 0.0717 nM and 0.0765 nM
rGAT1EM [2]; c NO711 5 nM
  total binding: 0.175 nM and 0.157 nM and 0.182 nM
rGAT1EM [2]; c NO711 10 nM
  total binding: 0.266 nM and 0.298 nM and 0.282 nM
rGAT1EM [2]; c NO711 20 nM
  total binding: 0.414 nM and 0.405 nM and 0.393 nM
rGAT1EM [2]; c NO711 40 nM
  non-specific binding: 0.0146 nM and 0.0116 nM and 0.0148 nM
  total binding: 0.654 nM and 0.656 nM and 0.82 nM
rGAT1EM [2]; c NO711 80 nM
  non-specific binding: 0.0357 nM and 0.0322 nM and 0.0377 nM
  total binding: 0.825 nM and 0.877 nM and 0.867 nM
rGAT1EM [2]; c NO711 160 nM
  non-specific binding: 0.0681 nM and 0.0747 nM and 0.0767 nM
  total binding: 1.22 nM and 1.29 nM and 1.33 nM
rGAT1EM [2]; c NO711 320 nM
  non-specific binding: 0.131 nM and 0.148 nM and 0.145 nM
  total binding: 1.55 nM and 1.39 nM and 1.57 nM
rGAT1EM [2]; c NO711 640 nM
  non-specific binding: 0.281 nM and 0.277 nM and 0.282 nM
  total binding: 1.85 nM and 2.19 nM and 2.02 nM
rGAT1EM [2]; c NO711 1280 nM
  non-specific binding: 0.608 nM and 0.571 nM and 0.589 nM
  total binding: 2.47 nM and 2.46 nM
rGAT1EM [3]; [5]
  Ki: 53 ± 4 nM
rGAT1EM [3]; inhibitor 1 nM, 0.001 µM
  3[H]GABA uptake (% of uninhibited sample): 100.216% and 103.239% and 95.1781% and 97.6251% and 105.398% and 98.3447%
rGAT1EM [3]; inhibitor 10 nM, 0.01 µM
  3[H]GABA uptake (% of uninhibited sample): 90.824% and 80.7485% and 91.6877% and 97.5891% and 93.055% and 87.4415%
rGAT1EM [3]; inhibitor 30 nM, 0.03 µM
  3[H]GABA uptake (% of uninhibited sample): 85.8582% and 72.9759% and 75.9266% and 79.8129% and 79.2371% and 88.8089%
rGAT1EM [3]; inhibitor 100 nM, 0.1 µM
  3[H]GABA uptake (% of uninhibited sample): 55.6315% and 53.1846% and 49.5862% and 54.3361% and 66.2109% and 52.321%
rGAT1EM [3]; inhibitor 500 nM, 0.5 µM
  3[H]GABA uptake (% of uninhibited sample): 29.8309% and 34.7967% and 26.0165% and 31.1983% and 34.4368% and 36.2361%
rGAT1EM [3]; inhibitor 1000 nM, 1 µM
  3[H]GABA uptake (% of uninhibited sample): 17.0205% and 18.9637% and 19.4674% and 16.1569% and 19.1796% and 13.2062%
rGAT1EM [3]; inhibitor 3000 nM, 3 µM
  3[H]GABA uptake (% of uninhibited sample): 9.608% and 6.153% and 8.168% and 9.104% (2×) and 11.1191%
rGAT1EM [3]; inhibitor 10000 nM, 10 µM
  3[H]GABA uptake (% of uninhibited sample): 5.11% and 2.879% and 4.39% and 4.246% and 2.375% and 5.038%
rGAT1EM [3]; inhibitor 50000 nM, 50 µM
  3[H]GABA uptake (% of uninhibited sample): 1.763% and 1.439% and 0.8276% and 1.799% and 0.8996% and 1.3674%
rGAT1EM [3]; inhibitor 100000 nM, 100 µM
  3[H]GABA uptake (% of uninhibited sample): 0.5757% and 0.6477% and 0.7197% and 0.5038% (2×) and 0.3598%
rGAT1EM [3]; read-out: IC50 of inhibition of 3H-GABA uptake
  IC50: 155 nM
rGAT1EM [3]; read-out: inhibition potencies (K0.5)
  IC50: 155 nM
rGAT1WT [4]; rGAT1WT membranes
  BMAX (MS binding assay): 166.4 ± 44.6 pmol/mg protein
  Kd: 50 nM and 50.6 nM
rGAT1WT [4]; c NO711 2.5 nM
  total binding: 0.0851 nM and 0.0839 nM and 0.0992 nM
rGAT1WT [4]; c NO711 5 nM
  total binding: 0.236 nM and 0.225 nM and 0.219 nM
rGAT1WT [4]; c NO711 10 nM
  total binding: 0.387 nM and 0.361 nM
rGAT1WT [4]; c NO711 20 nM
  total binding: 0.566 nM and 0.612 nM and 0.546 nM
rGAT1WT [4]; c NO711 40 nM
  non-specific binding: 0.0154 nM and 0.0179 nM and 0.0127 nM
  total binding: 0.967 nM and 0.954 nM and 0.928 nM
rGAT1WT [4]; c NO711 80 nM
  non-specific binding: 0.0317 nM and 0.0305 nM and 0.029 nM
  total binding: 1.15 nM and 1.08 nM and 1.2 nM
rGAT1WT [4]; c NO711 160 nM
  non-specific binding: 0.0708 nM and 0.0715 nM and 0.07 nM
  total binding: 1.46 nM and 1.6 nM
rGAT1WT [4]; c NO711 320 nM
  non-specific binding: 0.131 nM and 0.157 nM and 0.18 nM
  total binding: 1.95 nM and 1.86 nM and 1.76 nM
rGAT1WT [4]; c NO711 640 nM
  non-specific binding: 0.27 nM and 0.291 nM and 0.276 nM
  total binding: 2.12 nM and 2.1 nM and 2.38 nM
rGAT1WT [4]; c NO711 1280 nM
  non-specific binding: 0.65 nM and 0.595 nM and 0.624 nM
  total binding: 2.77 nM and 2.69 nM and 2.73 nM
